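Step 1: Grow cells in 96-well plates. Step 2: Expose to compound for 48 hours at 5 concentrations. Step 3: Interpolate endpoints linearly; if unreached, use highest concentration. Here, GI50 denotes the concentration required for 50% inhibition of growth.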 Activity calls are given as the source filed them. No stated cut-off is given here; in the data, active = GI50 up to about 1.1 µM and inactive = higher.
Legend:
Assay in all cases: NCI tumour cell line growth inhibition, 48 h
ACHN = tested on: ACHN
COLO 205 = tested on: COLO 205
EKVX = tested on: EKVX
HT-29 = tested on: HT-29
Malme-3M = tested on: Malme-3M
NCI-H226 = tested on: NCI-H226
RPMI-8226 = tested on: RPMI-8226
SF-539 = tested on: SF-539
SK-MEL-2 = tested on: SK-MEL-2
SK-MEL-5 = tested on: SK-MEL-5
SN12C = tested on: SN12C
SR = tested on: SR
TK-10 = tested on: TK-10
UACC-257 = tested on: UACC-257
RXF 393 = tested on: RXF 393
UACC-62 = tested on: UACC-62

Nc1ccc2ncc(Nc3ccc(F)cc3)nc2c1
GI50 (ACHN): > 100 µM (inactive) | GI50 (COLO 205): > 100 µM (inactive) | GI50 (EKVX): > 100 µM (inactive) | GI50 (HT-29): > 100 µM (inactive) | GI50 (Malme-3M): > 100 µM (inactive) | GI50 (NCI-H226): 37.5 µM (inactive) | GI50 (RPMI-8226): 87.3 µM (inactive) | GI50 (SF-539): 90.4 µM (inactive) | GI50 (SK-MEL-2): > 10 µM (inactive) | GI50 (SK-MEL-5): 34.9 µM (inactive) | GI50 (SN12C): > 100 µM (inactive) | GI50 (SR): 44 µM (inactive) | GI50 (TK-10): > 100 µM (inactive) | GI50 (UACC-257): > 100 µM (inactive)

CC(=O)OCC1OC(n2c(=S)n(-c3ccccc3)c(=O)c3cc(Br)ccc32)C(OC(C)=O)C1OC(C)=O (configuration not stated)
GI50 (ACHN): > 100 µM (inactive) | GI50 (COLO 205): > 100 µM (inactive) | GI50 (EKVX): > 100 µM (inactive) | GI50 (HT-29): > 100 µM (inactive) | GI50 (Malme-3M): > 100 µM (inactive) | GI50 (NCI-H226): > 100 µM (inactive) | GI50 (RPMI-8226): 51.3 µM (inactive) | GI50 (RXF 393): > 100 µM (inactive) | GI50 (SF-539): > 100 µM (inactive) | GI50 (SK-MEL-2): > 100 µM (inactive) | GI50 (SK-MEL-5): > 100 µM (inactive) | GI50 (SN12C): > 100 µM (inactive) | GI50 (UACC-257): > 100 µM (inactive) | GI50 (UACC-62): > 100 µM (inactive)

Cc1ccccc1C(=O)Oc1ccc(OCc2ccccc2)cc1
GI50 (ACHN): 9.18 µM (inactive) | GI50 (COLO 205): > 100 µM (inactive) | GI50 (EKVX): > 100 µM (inactive) | GI50 (HT-29): 63.8 µM (inactive) | GI50 (Malme-3M): > 100 µM (inactive) | GI50 (RPMI-8226): 25.6 µM (inactive) | GI50 (RXF 393): 39.1 µM (inactive) | GI50 (SF-539): > 100 µM (inactive) | GI50 (SK-MEL-5): 48.6 µM (inactive) | GI50 (SN12C): 93.8 µM (inactive) | GI50 (SR): 19.1 µM (inactive) | GI50 (TK-10): > 100 µM (inactive) | GI50 (UACC-257): 95.7 µM (inactive) | GI50 (UACC-62): 83.8 µM (inactive)

COc1cc2ccc(/C(C)=N/OC(C)=O)cc2cc1OC
GI50 (ACHN): 65.3 µM (inactive) | GI50 (COLO 205): > 100 µM (inactive) | GI50 (EKVX): 3.58 µM (inactive) | GI50 (HT-29): 64.3 µM (inactive) | GI50 (Malme-3M): > 100 µM (inactive) | GI50 (NCI-H226): 53.6 µM (inactive) | GI50 (RPMI-8226): 84.7 µM (inactive) | GI50 (RXF 393): 25.4 µM (inactive) | GI50 (SF-539): 77.1 µM (inactive) | GI50 (SK-MEL-2): 81.3 µM (inactive) | GI50 (SN12C): 49.5 µM (inactive) | GI50 (TK-10): 44.8 µM (inactive) | GI50 (UACC-257): > 100 µM (inactive) | GI50 (UACC-62): 20.8 µM (inactive)

Oc1ccccc1/C=N/Cc1ccco1
GI50 (ACHN): > 100 µM (inactive) | GI50 (EKVX): > 100 µM (inactive) | GI50 (HT-29): > 100 µM (inactive) | GI50 (Malme-3M): > 100 µM (inactive) | GI50 (NCI-H226): > 100 µM (inactive) | GI50 (RPMI-8226): > 100 µM (inactive) | GI50 (RXF 393): > 100 µM (inactive) | GI50 (SF-539): > 100 µM (inactive) | GI50 (SN12C): > 100 µM (inactive) | GI50 (SR): > 100 µM (inactive) | GI50 (TK-10): > 100 µM (inactive) | GI50 (UACC-257): > 100 µM (inactive) | GI50 (UACC-62): > 100 µM (inactive)

Nc1nc(N)c(CCCCc2ccccc2)c(/C=C/c2ccc([N+](=O)[O-])cc2)n1
GI50 (ACHN): 3.4 µM (inactive) | GI50 (COLO 205): 3.39 µM (inactive) | GI50 (EKVX): 4.44 µM (inactive) | GI50 (HT-29): 0.925 µM (active) | GI50 (Malme-3M): 1.67 µM (inactive) | GI50 (NCI-H226): 26.1 µM (inactive) | GI50 (RPMI-8226): 3.31 µM (inactive) | GI50 (SF-539): 2.16 µM (inactive) | GI50 (SK-MEL-2): 2.79 µM (inactive) | GI50 (SK-MEL-5): 2.18 µM (inactive) | GI50 (SN12C): 2.74 µM (inactive) | GI50 (SR): 1.56 µM (inactive) | GI50 (TK-10): 1.8 µM (inactive) | GI50 (UACC-257): 2.51 µM (inactive) | GI50 (UACC-62): 2.07 µM (inactive)

Cc1cccc(NC2=NC(=O)C(CC(=O)Nc3cccc(C)c3C)S2)c1 (configuration not stated)
GI50 (ACHN): > 100 µM (inactive) | GI50 (COLO 205): > 100 µM (inactive) | GI50 (EKVX): > 100 µM (inactive) | GI50 (HT-29): > 100 µM (inactive) | GI50 (Malme-3M): > 100 µM (inactive) | GI50 (NCI-H226): > 100 µM (inactive) | GI50 (RPMI-8226): 85.9 µM (inactive) | GI50 (RXF 393): > 100 µM (inactive) | GI50 (SK-MEL-2): > 100 µM (inactive) | GI50 (SK-MEL-5): > 100 µM (inactive) | GI50 (SN12C): > 100 µM (inactive) | GI50 (TK-10): > 100 µM (inactive) | GI50 (UACC-257): > 100 µM (inactive) | GI50 (UACC-62): > 100 µM (inactive)

Cc1ccc(S(=O)(=O)C2=c3nc4ccccc4cc3=C3C(=O)c4ccccc4C(=O)C32)cc1 (configuration not stated)
GI50 (ACHN): > 100 µM (inactive) | GI50 (COLO 205): > 100 µM (inactive) | GI50 (EKVX): > 100 µM (inactive) | GI50 (Malme-3M): > 100 µM (inactive) | GI50 (NCI-H226): > 100 µM (inactive) | GI50 (RPMI-8226): > 100 µM (inactive) | GI50 (SF-539): > 100 µM (inactive) | GI50 (SK-MEL-2): > 100 µM (inactive) | GI50 (SK-MEL-5): 63.2 µM (inactive) | GI50 (SN12C): > 100 µM (inactive) | GI50 (SR): > 100 µM (inactive) | GI50 (TK-10): > 100 µM (inactive) | GI50 (UACC-257): > 100 µM (inactive) | GI50 (UACC-62): > 100 µM (inactive)

Cc1nc2c(sc(=S)n2-c2ccccc2)c2nc3ccccc3n12
GI50 (ACHN): > 100 µM (inactive) | GI50 (COLO 205): > 100 µM (inactive) | GI50 (EKVX): > 100 µM (inactive) | GI50 (HT-29): > 100 µM (inactive) | GI50 (Malme-3M): > 100 µM (inactive) | GI50 (NCI-H226): > 100 µM (inactive) | GI50 (RPMI-8226): > 100 µM (inactive) | GI50 (RXF 393): > 100 µM (inactive) | GI50 (SF-539): > 100 µM (inactive) | GI50 (SK-MEL-2): > 100 µM (inactive) | GI50 (SN12C): > 100 µM (inactive) | GI50 (TK-10): > 100 µM (inactive) | GI50 (UACC-257): > 100 µM (inactive) | GI50 (UACC-62): > 100 µM (inactive)

CCC(=O)CCC1=Nc2nnc(CCCCc3nnc4n3C(=O)C(CCC(=O)CC)=N4)n2C1=O
GI50 (ACHN): > 100 µM (inactive) | GI50 (COLO 205): > 100 µM (inactive) | GI50 (EKVX): > 100 µM (inactive) | GI50 (HT-29): > 100 µM (inactive) | GI50 (Malme-3M): > 100 µM (inactive) | GI50 (NCI-H226): > 100 µM (inactive) | GI50 (RPMI-8226): > 100 µM (inactive) | GI50 (RXF 393): > 100 µM (inactive) | GI50 (SF-539): > 100 µM (inactive) | GI50 (SK-MEL-2): > 100 µM (inactive) | GI50 (SN12C): > 100 µM (inactive) | GI50 (TK-10): > 100 µM (inactive) | GI50 (UACC-257): > 100 µM (inactive) | GI50 (UACC-62): > 100 µM (inactive)

C=CCC1C(=O)C(C(=O)OC)N2CCc3c([nH]c4ccccc34)C12 (configuration not stated)
GI50 (COLO 205): > 100 µM (inactive) | GI50 (EKVX): > 100 µM (inactive) | GI50 (HT-29): > 100 µM (inactive) | GI50 (Malme-3M): > 100 µM (inactive) | GI50 (RPMI-8226): 59.2 µM (inactive) | GI50 (RXF 393): > 100 µM (inactive) | GI50 (SF-539): > 100 µM (inactive) | GI50 (SK-MEL-2): > 100 µM (inactive) | GI50 (SK-MEL-5): > 100 µM (inactive) | GI50 (SN12C): > 100 µM (inactive) | GI50 (SR): 61.1 µM (inactive) | GI50 (TK-10): > 100 µM (inactive) | GI50 (UACC-62): > 100 µM (inactive)

CC#COS(=O)(=O)c1ccc(C)cc1
GI50 (ACHN): 58.2 µM (inactive) | GI50 (COLO 205): 39.9 µM (inactive) | GI50 (EKVX): 53.5 µM (inactive) | GI50 (HT-29): 45.9 µM (inactive) | GI50 (Malme-3M): 88.3 µM (inactive) | GI50 (NCI-H226): 89.3 µM (inactive) | GI50 (RPMI-8226): 23.1 µM (inactive) | GI50 (SF-539): > 100 µM (inactive) | GI50 (SK-MEL-2): > 100 µM (inactive) | GI50 (SK-MEL-5): 37.4 µM (inactive) | GI50 (SN12C): > 100 µM (inactive) | GI50 (SR): 33.7 µM (inactive) | GI50 (TK-10): > 100 µM (inactive) | GI50 (UACC-257): 47.5 µM (inactive) | GI50 (UACC-62): 32.4 µM (inactive)

C=CCC1(CN(C)C)CC/C(=C\c2ccc(OC)cc2)C1=O (configuration not stated)
GI50 (ACHN): > 100 µM (inactive) | GI50 (COLO 205): 46.7 µM (inactive) | GI50 (EKVX): 20.3 µM (inactive) | GI50 (HT-29): 36.6 µM (inactive) | GI50 (Malme-3M): 79.3 µM (inactive) | GI50 (NCI-H226): > 100 µM (inactive) | GI50 (RPMI-8226): 23.9 µM (inactive) | GI50 (RXF 393): > 100 µM (inactive) | GI50 (SF-539): > 100 µM (inactive) | GI50 (SK-MEL-2): > 100 µM (inactive) | GI50 (SK-MEL-5): 41.5 µM (inactive) | GI50 (SN12C): > 100 µM (inactive) | GI50 (TK-10): > 100 µM (inactive) | GI50 (UACC-257): 38 µM (inactive) | GI50 (UACC-62): > 100 µM (inactive)

CC(=O)Oc1c(-c2ccccc2)[nH]c2cc([N+](=O)[O-])c(/C(Cl)=C/c3ccccc3)cc12
GI50 (ACHN): 5.4 µM (inactive) | GI50 (COLO 205): 4 µM (inactive) | GI50 (EKVX): 8.53 µM (inactive) | GI50 (HT-29): 3.2 µM (inactive) | GI50 (Malme-3M): 4.1 µM (inactive) | GI50 (NCI-H226): 4 µM (inactive) | GI50 (RPMI-8226): 3.08 µM (inactive) | GI50 (SK-MEL-2): 9.57 µM (inactive) | GI50 (SK-MEL-5): 1.89 µM (inactive) | GI50 (SN12C): 4.86 µM (inactive) | GI50 (SR): 3.57 µM (inactive) | GI50 (TK-10): 19.8 µM (inactive) | GI50 (UACC-257): 5.77 µM (inactive) | GI50 (UACC-62): 4.24 µM (inactive)
